Columns and labels:
[1] = test system: pupil diameter; test: Pupillometry; format: in vivo, human; conditions: trial A; for Pupil diameter, predose: before first dose of segment
[2] = test system: cold-induced pain; test: Cold pressor test; format: in vivo, human; conditions: trial A
[3] = test system: healthy participants; test: Drug-related adverse events
[4] = test system: healthy participants; test: Abuse liability visual analog scales; format: in vivo, human; conditions: trial A, n = 43, 0–100 mm VAS after seventh dose, M (SD)
[5] = achiral analyses of blood; intoxication with the labelled substance; cited from earlier work
[6] = tramadol and its metabolites; cited from earlier work
[7] = test system: cold-induced pain; conditions: VAS, mean [SD], cited from earlier work
[8] = 12 participants, 5 days rifampicin, 100 mg oral tramadol; cited from earlier work
[9] = cited from earlier work
[10] = test system: healthy participants; test: Respiratory rate; conditions: trial B (with paroxetine), n = 60; MPD (SD)

SMILES: COc1cccc(C2(O)CCCCC2CN(C)C)c1 (centres unmarked) [Tramadol, tramadol]
- pupil diameter, mean paired reduction compared with placebo ([1]; after dosing, mean (SD)): −.7 (.6) mm
- Pupil diameter, after seventh dose ([1]; n = 43, M (SD)): 5.5 (1.1) mm
- Pupil diameter, predose ([1]; n = 43, M (SD)): 6.1 (.9) mm
- Pupil diameter, predose ([1]; n = 43, M (SD), listed as tramadol): 6.1 [.9] mm
- average duration of tolerance to pain [2]: 62 s
- Deaths ([3]; trial A): 0 (0) n (%)
- Severe AEs ([3]; trial A): 0 (0) n (%)
- participants reporting drug-related AEs ([3]; trial A): 49%
- Dizziness ([3]; trial A, all): 5(12) n (%)
- Euphoria ([3]; trial A, all): 0 (0) n (%)
- Feel abnormal ([3]; trial A, all): 1 (2) n (%)
- Feel hot ([3]; trial A, all): 0 (0) n (%)
- Headache ([3]; trial A, all): 7(17) n (%)
- Nausea ([3]; trial A, all): 5(12) n (%)
- Presyncope ([3]; trial A, all): 0 (0) n (%)
- Pruritus ([3]; trial A, all): 4(10) n (%)
- Somnolence ([3]; trial A, all): 2 (5) n (%)
- Spasticity ([3]; trial A, all): 1 (2) n (%)
- Sweating ([3]; trial A, all): 0 (0) n (%)
- Vomiting ([3]; trial A, all): 1 (2) n (%)
- Dizziness ([3]; trial A, male): 5(12) n (%)
- Euphoria ([3]; trial A, male): 0 (0) n (%)
- Feel abnormal ([3]; trial A, male): 1 (2) n (%)
- Feel hot ([3]; trial A, male): 0 (0) n (%)
- Headache ([3]; trial A, male): 7(17) n (%)
- Nausea ([3]; trial A, male): 5(12) n (%)
- Presyncope ([3]; trial A, male): 0 (0) n (%)
- Pruritus ([3]; trial A, male): 4(10) n (%)
- Somnolence ([3]; trial A, male): 2 (5) n (%)
- Spasticity ([3]; trial A, male): 1 (2) n (%)
- Sweating ([3]; trial A, male): 0 (0) n (%)
- Vomiting ([3]; trial A, male): 1 (2) n (%)
- All drug-related AEs ([3]; trial A, n = 43 (all male)): 20 (49) n (%)
- Deaths ([3]; trial B): 0 (0) n (%)
- Severe AEs ([3]; trial B): 0 (0) n (%)
- participants reporting drug-related AEs ([3]; trial B (with paroxetine)): 50%
- All drug-related AEs ([3]; trial B (with paroxetine), n = 60): 30 (50) n (%)
- Dizziness ([3]; trial B, all): 8(13) n (%)
- Euphoria ([3]; trial B, all): 1 (2) n (%)
- Feel abnormal ([3]; trial B, all): 2 (3) n (%)
- Feel hot ([3]; trial B, all): 0 (0) n (%)
- Headache ([3]; trial B, all): 6(10) n (%)
- Nausea ([3]; trial B, all): 8(13) n (%)
- Presyncope ([3]; trial B, all): 1 (2) n (%)
- Pruritus ([3]; trial B, all): 1 (2) n (%)
- Somnolence ([3]; trial B, all): 4(7) n (%)
- Spasticity ([3]; trial B, all): 3 (5) n (%)
- Sweating ([3]; trial B, all): 1 (2) n (%)
- Vomiting ([3]; trial B, all): 2 (3) n (%)
- Dizziness ([3]; trial B, female): 4(22) n (%)
- Euphoria ([3]; trial B, female): 0 (0) n (%)
- Feel abnormal ([3]; trial B, female): 0 (0) n (%)
- Feel hot ([3]; trial B, female): 0 (0) n (%)
- Headache ([3]; trial B, female): 6 (33) n (%)
- Nausea ([3]; trial B, female): 2(11) n (%)
- Presyncope ([3]; trial B, female): 0 (0) n (%)
- Pruritus ([3]; trial B, female): 1 (6) n (%)
- Somnolence ([3]; trial B, female): 2(11) n (%)
- Spasticity ([3]; trial B, female): 0 (0) n (%)
- Sweating ([3]; trial B, female): 0 (0) n (%)
- Vomiting ([3]; trial B, female): 0 (0) n (%)
- Dizziness ([3]; trial B, male): 4(10) n (%)
- Euphoria ([3]; trial B, male): 1 (2) n (%)
- Feel abnormal ([3]; trial B, male): 2 (5) n (%)
- Feel hot ([3]; trial B, male): 0 (0) n (%)
- Headache ([3]; trial B, male): 0 (0) n (%)
- Nausea ([3]; trial B, male): 6(14) n (%)
- Presyncope ([3]; trial B, male): 1 (2) n (%)
- Pruritus ([3]; trial B, male): 0 (0) n (%)
- Somnolence ([3]; trial B, male): 2 (5) n (%)
- Spasticity ([3]; trial B, male): 3 (7) n (%)
- Sweating ([3]; trial B, male): 1 (2) n (%)
- Vomiting ([3]; trial B, male): 2 (5) n (%)
- headache incidence, tramadol compared with desmetramadol AE profile ([3]; trial B, same participants): −40%
- nausea incidence, tramadol compared with desmetramadol AE profile ([3]; trial B, same participants): −50%
- presyncope incidence, tramadol compared with desmetramadol AE profile ([3]; trial B, same participants): −83%
- pruritus incidence, tramadol compared with desmetramadol AE profile ([3]; trial B, same participants): −75%
- somnolence incidence, tramadol compared with desmetramadol AE profile ([3]; trial B, same participants): −60%
- vomiting incidence, tramadol compared with desmetramadol AE profile ([3]; trial B, same participants): −78%
- Drug liking-disliking [4]: 48(15) mm
- Strength of drug effect [4]: 32 (29) mm
- Take drug again [4]: 47(18) mm
- Strength of drug effect ([4]; listed as tramadol): 32 [29] mm
- mean blood M1 level in fatal intoxications [5]: 1,900 ng/mL
- tramadol dose appearing in the urine [6]: > 90%
- peak mean pain perception to cold after tramadol ([7]; after a single 50 mg dose of tramadol): 5.0 [2.3] cm
- peak mean pain perception to cold before tramadol ([7]; before a single 50 mg dose of tramadol): 6.3 [2.0] cm
- decrease of AUC by rifampicin induction [8]: 59%
- lethal dose [9]: > 5 g
- median ingested dose in overdose with respiratory depression ([9]; in vivo): 2,500 mg
- median ingested dose in overdose with no respiratory depression ([9]; range = 450−6,000 mg): 1,000 mg
- Average postdose respiratory rate, mean paired difference versus placebo [10]: −.34 [.99] min^−1
